Laboratory results published in ChEMBL document CHEMBL1144075, “New cembranes from the soft coral sarcophyton species” (J Nat Prod, 1999).

Test system: Oryzias latipes
Assay: Ichthyotoxicity against Oryzias latipes at 20 ug/mL
Assay type: organism-based
Conditions: in vivo

SMILES: C/C1=C/C[C@@H](C(C)C)/C=C/[C@](C)(O)CC/C=C(\C)CC(=O)C1 [SARTONE E]
- Activity: Non-toxic
